# Measurements from PMC11503492, “Activity-Based DNA-Encoded Library Screening for Selective Inhibitors of Eukaryotic Translation” (ACS Central Science, 2024).
# System: RPL27[1:32]-GFP translation
# Experiment: WG IVTT activity assay, RPL27[1:32]-GFP template
# Format: biochemical, wheat germ
# Excerpt: A commercially available wheat germ lysate (WG) IVTT system was employed to assay translation inhibition. Translation activity was detected via a GFP reporter, and the assay was miniaturized to picoliter-scale microfluidic droplets (Figure 1A,B). […] PCSK9 and RPL27 were truncated to the first 33 and 32 amino acids, respectively (PCSK9[1:33] and RPL27[1:32]). The sequences contain distinct PF846 stall sites and were both fused to a GFP reporter. The GFP reporter and a frameshift mutant of PCSK9[1:33] (PCSK9-FS[1:33]), which mutates the nascent chain sequence while maintaining a nearly identical mRNA sequence, were included as negative controls.[13] […] The WG IVTT assay was miniaturized using a previously described microfluidic circuit modified for longer incubation times (Figure S1)[27] using PF846 as a positive control compound, and assay statistical quality was calculated (Z′=0.7) (Figure 1E). […] Assay statistical quality using PC-HygB positive control beads was similarly calculated (Z′ = 0.75, Figure 1H). […]
# 429 of encoding region identifiers was then determined using a UMI aggregation algorithm; […]
# 433 manually determined threshold (10) were discarded. […]
# 440 progress was immediately monitored (λex = 480 nm, λem = 530 nm, 27 °C, 2 h). […]
# 441 tive activity was calculated using the slope of fluorescence increase over time (at 15–30 […]
# Figure S11. […] Compound 8 (black) and PF846 (gray) were analyzed […]
compound,measurement,value
Cc1cccc2ccnc(N(C(=O)[C@H]3CCCN(C(=O)c4cccc5c(C#N)c[nH]c45)C3)[C@@H]3CCCNC3)c12 [Compound 8],activity on RPL27[1:32]-GFP translation (in words),most active
